Laboratory results from the Biogen ADME set (Fang et al. 2023).
Values after ≈ are worked out from the molar mass of the structure shown.

Settings: for aqueous solubility: pH 6.8

| SMILES | MDR1-MDCK efflux ratio | intrinsic clearance, human liver microsomes | intrinsic clearance, rat liver microsomes | aqueous solubility | fraction unbound, human plasma | fraction unbound, rat plasma |
| --- | --- | --- | --- | --- | --- | --- |
| O=C(NCc1ccccc1)c1ccc(NS(=O)(=O)c2ccc(C3CCCCC3)cc2)cc1 | 2.69 | 81 mL/min/kg | 402 mL/min/kg | 1.57 µg/mL (≈ 3.5 µM) | – | – |
| c1ccc(-c2noc(NC3CC3)n2)cc1 | 0.809 | 83.2 mL/min/kg | 178 mL/min/kg | 28.3 µg/mL (≈ 141 µM) | – | – |
| CC(=O)NCC(=O)N1[C@@H]2CC[C@H]1c1ccc(Nc3ncc(C(F)(F)F)c(NC4CCC4)n3)cc12 | 29.1 | 20.8 mL/min/kg | 90.9 mL/min/kg | – | – | – |
| Cc1nccn1CCNC(=O)C(C)(C)C | 6.52 | ≤ 4.74 mL/min/kg | ≤ 10.7 mL/min/kg | 26.2 µg/mL (≈ 125 µM) | – | – |
| Cc1nnc(-c2ccc(N3CCC(Oc4ccccc4C(F)(F)F)CC3)nn2)s1 | 0.485 | 14.4 mL/min/kg | – | – | 0.00124 | – |
| O=C(CCCOc1ccccc1)N1CCCC1 | 0.631 | 10.4 mL/min/kg | 295 mL/min/kg | 30.5 µg/mL (≈ 131 µM) | – | – |
| CCN(C/C=C\c1ccc(C2CCCCC2)c(Cl)c1)C1CCCCC1 | – | 47.5 mL/min/kg | 591 mL/min/kg | 6.6 µg/mL (≈ 18.3 µM) | 0.0014 | 0.00541 |
| CCOC(=O)CCN1CCC=C(Br)C1 | 0.625 | – | – | – | – | – |
| CC(=O)Nc1sc2c(c1-c1nc3ccccc3s1)CCN(C(C)C)C2 | – | 34.8 mL/min/kg | 231 mL/min/kg | – | – | – |
| Cn1ccc(CN2CCC(c3cnccn3)CC2)n1 | 0.983 | ≤ 4.74 mL/min/kg | 26.8 mL/min/kg | 50 µg/mL (≈ 194 µM) | – | – |
| O=C(CSc1ncn[nH]1)N(C1CCCCC1)C1CCCCC1 | 2.57 | 120 mL/min/kg | 1410 mL/min/kg | 35.7 µg/mL (≈ 111 µM) | – | – |
| Cc1cc2c(=O)n3c(nc2s1)CCNCC3 | – | ≤ 4.74 mL/min/kg | 67.5 mL/min/kg | – | – | – |
| NCCCC[C@H](N[C@@H](CCc1ccccc1)C(=O)O)C(=O)N1CCC[C@H]1C(=O)O | – | – | – | – | – | 1 |
| COc1ccc(Br)c(-c2nnc(N)o2)c1 | 0.707 | 16.4 mL/min/kg | 59.2 mL/min/kg | 24.8 µg/mL (≈ 91.7 µM) | – | – |
| Cc1nc(N(C)C)nc(C)c1NC(=O)C1CCCCC1 | 0.656 | 6.25 mL/min/kg | 75.4 mL/min/kg | 49.3 µg/mL (≈ 179 µM) | – | – |
| COc1nc2c(cc1CNC(=O)N1CC[C@@H](O)C1)C(=O)N(C1CCCC1)C2 | 32 | ≤ 4.74 mL/min/kg | ≤ 10.7 mL/min/kg | – | – | – |

| SMILES | MDR1-MDCK efflux ratio | intrinsic clearance, human liver microsomes | intrinsic clearance, rat liver microsomes | aqueous solubility | fraction unbound, human plasma | fraction unbound, rat plasma |
| --- | --- | --- | --- | --- | --- | --- |
| O=C(c1ccc(O)nc1)N1CCN(c2ncccn2)CC1 | 7 | ≤ 4.74 mL/min/kg | ≤ 10.7 mL/min/kg | 43.1 µg/mL (≈ 151 µM) | – | – |
| O=C(CC1CCN(c2ncc(Cl)cn2)CC1)N1CCOCC1 | 0.764 | ≤ 4.74 mL/min/kg | 46.9 mL/min/kg | 51.2 µg/mL (≈ 158 µM) | – | – |
| CNC(=O)c1ccc(N(C)C2CCC2)nn1 | 0.586 | 24.8 mL/min/kg | 40.3 mL/min/kg | 47.3 µg/mL (≈ 215 µM) | – | – |
| CC1(C)[C@@H]2C[C@H]1[C@@]1(O)[C@@H](C2)Oc2c(ccc(O)c2C(=O)NCCNc2ccccn2)[C@@H]1O | 24.5 | 322 mL/min/kg | 2010 mL/min/kg | – | – | – |
| N#CCCCN1CCN(c2cc(C#N)ccn2)CC1 | 0.56 | ≤ 4.74 mL/min/kg | 180 mL/min/kg | 41.2 µg/mL (≈ 162 µM) | – | – |
| CN1CCC(O)(CNS(=O)(=O)CC2CCCCC2)CC1 | 2.92 | ≤ 4.74 mL/min/kg | 387 mL/min/kg | – | – | – |
| Cc1nc(C)c(CNc2ncnn2C)s1 | 4 | ≤ 4.74 mL/min/kg | 22.5 mL/min/kg | – | – | – |
| N#CCSCC(=O)NC1CCCCCC1 | 0.743 | ≤ 4.74 mL/min/kg | 38.2 mL/min/kg | 44.8 µg/mL (≈ 198 µM) | – | – |
| CC1CCN([C@H](c2ccc(F)cc2)c2ccc([C@@H](C)C(=O)O)cc2-c2ccc(C(F)(F)F)cc2)CC1 | 1.99 | 7.84 mL/min/kg | 17.7 mL/min/kg | 39.5 µg/mL (≈ 79.1 µM) | – | – |
| Cc1ccc(S(=O)(=O)N2CCC(c3nnc(-c4cccnc4)o3)C2)cc1 (stereo not given) | 2.87 | 41.7 mL/min/kg | 591 mL/min/kg | – | – | – |
| CCCN(Cc1ccccc1)C(=O)CC1(N)CCC1 | 11.9 | ≤ 4.74 mL/min/kg | 725 mL/min/kg | 56.4 µg/mL (≈ 217 µM) | – | – |
| O=C(COC(=O)c1cc(O)nc2ccccc12)c1ccc(Oc2c(Cl)cccc2[N+](=O)[O-])cc1 | – | 986 mL/min/kg | 184 mL/min/kg | – | – | – |
| CCCC(=O)N1CCC(c2cccc(C)n2)CC1 | 0.574 | ≤ 4.74 mL/min/kg | 443 mL/min/kg | 40.2 µg/mL (≈ 163 µM) | – | – |
| Cc1sc2nc(CN3CCCC3)nc(N)c2c1C | 17.6 | ≤ 4.74 mL/min/kg | 2760 mL/min/kg | 44.6 µg/mL (≈ 170 µM) | – | – |
| O=C(Nc1cccc(N2CCNC2=O)c1)C1NCC12CCCC2 (stereo not given) | 22 | ≤ 4.74 mL/min/kg | – | – | 0.523 | – |
| COc1cc(OC)c(OC)cc1CNC(C)(C)C | 4.78 | ≤ 4.74 mL/min/kg | 110 mL/min/kg | – | – | – |

More lines, main results first:

| MDR1-MDCK efflux ratio | intrinsic clearance, human liver microsomes | intrinsic clearance, rat liver microsomes | aqueous solubility | fraction unbound, human plasma | SMILES | fraction unbound, rat plasma |
| --- | --- | --- | --- | --- | --- | --- |
| 29 | 36.2 mL/min/kg | 415 mL/min/kg | 56.2 µg/mL (≈ 163 µM) | – | Cn1cc(C(=O)NCCc2c[nH]c3ccccc23)c(-c2cccnc2)n1 | – |
| 0.634 | 63.5 mL/min/kg | 1060 mL/min/kg | – | – | COc1ncnc(C)c1-c1cccc(OC(C)C)c1 | – |
| 6.29 | 101 mL/min/kg | 513 mL/min/kg | 17 µg/mL (≈ 52.3 µM) | – | CC(C)C[C@@H](CO)n1cc(-c2ccccc2Cn2cccn2)nn1 | – |
| 0.635 | ≤ 4.74 mL/min/kg | 44.2 mL/min/kg | 34.9 µg/mL (≈ 134 µM) | – | CCc1ncnc(N(C)Cc2ccc(N)nc2)c1F | – |
| 30.8 | ≤ 4.74 mL/min/kg | ≤ 10.7 mL/min/kg | 39.6 µg/mL (≈ 128 µM) | – | CN(Cc1ccn(-c2ccccc2)n1)C(=O)c1ccc(O)nc1 | – |
| 0.634 | ≤ 4.74 mL/min/kg | ≤ 10.7 mL/min/kg | 41.9 µg/mL (≈ 140 µM) | – | Cc1nc(-c2ccc(Cl)c(Cl)c2)n(CC(C)(C)O)n1 | – |
| 0.705 | ≤ 4.74 mL/min/kg | 12.2 mL/min/kg | 44.8 µg/mL (≈ 188 µM) | – | CCC(=O)N(C)CC(=O)Nc1cccc(F)c1 | – |
| 0.681 | ≤ 4.74 mL/min/kg | 103 mL/min/kg | 45.1 µg/mL (≈ 175 µM) | – | Cc1nc(Cn2ncc3ccccc3c2=O)cs1 | – |
| – | 24.8 mL/min/kg | 346 mL/min/kg | 72.4 µg/mL (≈ 176 µM) | – | CC(=O)NC1(c2ccc(F)cc2)CCN(Cc2ccc(OC3CCCC3)cc2)CC1 | – |
| 0.645 | ≤ 4.74 mL/min/kg | 83.7 mL/min/kg | – | – | Cn1c(=O)n(Cc2cccnc2)c(=O)c2ccc(C(F)(F)F)nc21 | – |
| 0.468 | 9.33 mL/min/kg | 39.7 mL/min/kg | – | – | Cc1nnc2ncc(-c3cccc4ccnn34)cn12 | – |
| 1.43 | ≤ 4.74 mL/min/kg | ≤ 10.7 mL/min/kg | – | – | COC[C@@H](O)Cn1c(C)nc2ccccc21 | – |
| 4.1 | ≤ 4.74 mL/min/kg | ≤ 10.7 mL/min/kg | – | – | O=C(O)C1CN(Cc2ccc(OCc3ccc(Cl)c(Cl)c3)cc2)C1 | – |
| 0.592 | ≤ 4.74 mL/min/kg | ≤ 10.7 mL/min/kg | – | – | CCn1nccc1CNc1ncccn1 | – |
| 0.577 | 49.7 mL/min/kg | 69.8 mL/min/kg | – | – | CCNc1nc(-c2cccnc2)nc(C)c1C | – |
| 0.339 | 14.9 mL/min/kg | 104 mL/min/kg | 3.2 µg/mL (≈ 9.62 µM) | – | Fc1cncc(-c2cnc(NCc3ccc(Cl)c(F)c3)nc2)c1 | – |
| – | 39.6 mL/min/kg | 399 mL/min/kg | – | – | Cc1cccnc1CNC(=O)c1ccc(Cl)s1 | – |
| 5 | 17.9 mL/min/kg | 318 mL/min/kg | 51 µg/mL (≈ 155 µM) | – | Cc1c(C(=O)NCc2cnc(N(C)C)n2C)sc2ccccc12 | – |
| 34.6 | 36.6 mL/min/kg | 597 mL/min/kg | – | – | O=C(Cn1nc(Cc2ccccc2)c2ccccc2c1=O)NCCc1c[nH]cn1 | – |
| 3.28 | 246 mL/min/kg | 3020 mL/min/kg | 40.5 µg/mL (≈ 136 µM) | – | CCc1ccc(-c2nccn2Cc2c(C)nn(CC)c2C)o1 | – |
| 15.1 | 13.3 mL/min/kg | 80.3 mL/min/kg | 18.7 µg/mL (≈ 53.8 µM) | – | CCC(=O)NCCNC(=O)c1cc(-c2ccccc2)nc2ccccc12 | – |
| 0.498 | 205 mL/min/kg | 129 mL/min/kg | 50.9 µg/mL (≈ 221 µM) | – | COCC(=O)Nc1cccc(-n2cccc2)c1 | – |
| – | ≤ 4.74 mL/min/kg | ≤ 10.7 mL/min/kg | 35.1 µg/mL (≈ 150 µM) | – | Cc1cc(F)ccc1NC(=O)Cn1cncn1 | – |
| 0.704 | ≤ 4.74 mL/min/kg | 31.1 mL/min/kg | – | – | O=C(Cc1cccnc1)Nc1ncccc1Cl | – |
| – | – | – | 1 µg/mL (≈ 3.43 µM) | – | CCn1nnc2cc(C(=O)Nc3cccc(C#N)c3)ccc21 | – |
| 0.775 | 13.7 mL/min/kg | 5720 mL/min/kg | – | – | CC(C)Nc1ccc(-c2cc3c(cc2CO)OCCO3)cn1 | – |
